Assay results from the supplement of paper PMC11061612.

Key:
Test in all cases: combination Emax (second highest fraction inhibited in the dose matrix, 72 h); higher = more inhibition; extreme values may be limits of the assay
[1] = system: L-428 (Hodgkin's Lymphoma)
Method in brief: (§1)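 Bliss excess equals the observed combination effect minus the expected value EA + EB − EA·EB, where EA and EB are the effects of each agent alone. Combination Emax is the second-highest inhibition within the matrix. Inhibition was scaled from CellTiter-Glo 2.0 luminescence, with 0 set by vehicle wells and 1 by blank wells, after 72 hours of two-drug dosing of cells plated in 1536-well plates.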

[2] = system: HeLa (Cervical Carcinoma)
Method in brief: as §1

[3] = system: NUGC-4 (Gastric Carcinoma)
Method in brief: as §1

[4] = system: ESS-1 (Other Solid Carcinomas)
Method in brief: as §1

[5] = system: WSU-NHL (B-Cell Non-Hodgkin's Lymphoma)
Method in brief: as §1

[6] = system: LS-123 (Colorectal Carcinoma)
Method in brief: as §1

BPH-1 (Non-Cancerous) = system: BPH-1 (Non-Cancerous)
Method in brief: as §1

CAL-72 (Osteosarcoma) = system: CAL-72 (Osteosarcoma)
Method in brief: as §1

LOXIMVI (Melanoma) = system: LOXIMVI (Melanoma)
Method in brief: as §1

[7] = system: HuCCT1 (Biliary Tract Carcinoma)
Method in brief: as §1

[8] = system: HH (T-Cell Non-Hodgkin's Lymphoma)
Method in brief: as §1

[9] = system: OE21 (Esophageal Squamous Cell Carcinoma)
Method in brief: as §1

[10] = system: LNZTA3WT4 (Low Grade Glioma)
Method in brief: as §1

[11] = system: ALL-PO (B-Lymphoblastic Leukemia)
Method in brief: as §1

[12] = system: TGBC1TKB (Biliary Tract Carcinoma)
Method in brief: as §1

[13] = system: BFTC-909 (Kidney Carcinoma)
Method in brief: as §1

[14] = system: SNU-449 (Hepatocellular Carcinoma)
Method in brief: as §1

[15] = system: SW1573 (Lung Adenocarcinoma)
Method in brief: as §1

[16] = system: FTC-133 (Thyroid Gland Carcinoma)
Method in brief: as §1

EW-11 (Ewing's Sarcoma) = system: EW-11 (Ewing's Sarcoma)
Method in brief: as §1

Row | Compound | combination Emax [1] | combination Emax [2] | combination Emax [3] | combination Emax [4] | combination Emax [5] | combination Emax [6] | combination Emax (BPH-1 (Non-Cancerous)) | combination Emax (CAL-72 (Osteosarcoma)) | combination Emax (LOXIMVI (Melanoma)) | combination Emax [7] | combination Emax [8] | combination Emax [9] | combination Emax [10] | combination Emax [11] | combination Emax [12] | combination Emax [13] | combination Emax [14] | combination Emax [15] | combination Emax [16] | combination Emax (EW-11 (Ewing's Sarcoma))
1 | COc1cccc(OCCCN)c1-c1cc(Nc2cnc(C#N)cn2)n[nH]1 [Prexasertib] + Cc1cc2ncnn2cc1Nc1ncc2c(n1)n(C1CCOCC1)c(=O)n2C [AZD7648] (first compound max 1 µM, 7x7, partner max 10 µM) | 0.958 | 0.839 | 0.493 | 1 | 1 | 0.764 | 0.319 | 0.994 | 0.784 | 0.83 | 0.65 | 0.788 | 0.9 | 0.993 | 0.483 | 0.945 | 0.308 | 0.201 | 0.82 | 0.742
2 | CC(=O)c1c(C)c2cnc(Nc3ccc(N4CCNCC4)cn3)nc2n(C2CCCC2)c1=O [Palbociclib] + CC1(C)CCC(CN2CCN(c3ccc(C(=O)NS(=O)(=O)c4ccc(NCC5CCOCC5)c([N+](=O)[O-])c4)c(Oc4cnc5[nH]ccc5c4)c3)CC2)=C(c2ccc(Cl)cc2)C1 [Venetoclax] (first compound max 10 µM, 7x7, partner max 1 µM) | 0.467 | 0.0741 | 0.194 | 0.294 | 0.92 | 0.138 | 0.153 | 0.345 | 0.515 | 0.309 | 0.343 | 0.229 | 0.307 | 0.931 | 0.033 | 0.326 | 0.272 | 0.204 | 0.0919 | 0.203
